Results on two compounds are retold here after patent publication US20110104052A1, “METHODS OF SYNTHESIS AND USE OF CHEMOSPHERES” (THE JOHNS HOPKINS UNIVERSITY, priority 2007, published 2011).

Data set [1] concerns tumors growing within the liver. As to conditions: rabbit model for liver cancer; cited from earlier work.
Data set [2] is described as follows: Loading of doxorubicin into liposome polymer matrices. The format is physicochemical. To be noted: polymer/lipid:drug ratio approximately at least 50:1, mol/mol. As for the experimental part:
The spheres that were subjected to ultrafiltration or column washes were stored for a variable amount of time in a minimal amount of 3 M sucrose, 750 mM Histidine HCl to maintain hydration at 20° C. and 5° C. Following storage the loading efficiency of doxorubicin into the spheres was assessed (table 1). For drug loading a procedure that could easily be implement in the pharmacy was employed. Specifically a water bath or dry heat block was allowed to equilibrate at 58° C. (55°-60° C.). For each 1 mL packed volume of microspheres, 50 mg of lyophilized doxorubicin (for storage lactose and parahydroxybenzoate may be added) in a solution of 8 mL was prepared. This solution was then added to the equilibrated heating source for 10 min. Next a 2 mL concentrated solution of sodium carbonate was injected into the microsphere solution. The 2 mL of microspheres and 8 mL of doxorubicin were then combined creating a solution with pH of 7 (this step should be done within 2 minutes of adding sodium carbonate to the microspheres). The mixture should be shaken vigorously and allowed to sit for at least 10 minutes in the heat block or water bath and then brought to room temperature. After this period the spheres can be stored up to 10 hours at 25° C. and for 7 days at 2° C.-8° C. […]

As for `O=C(O)C(=O)CBr` [3-bromopyruvate], the “effect of bolus injection on non-tumor tissue” value in data set [1] was “damages surrounding liver tissue”. Regarding `COc1cccc2c1C(=O)c1c(O)c3c(c(O)c1C2=O)C[C@@](O)(C(=O)CO)C[C@@H]3O[C@H]1C[C@H](N)[C@H](O)[C@H](C)O1` [doxorubicin], the “added doxorubicin that becomes vesicle entrapped as doxorubicin-citrate” value in data set [2] is given as “greater than 90%”.
